One data set deals with Vγ9/Vδ2 T cells. The data set is described as follows: In vitro Vγ9/Vδ2 T cell activation assay (PBMCs, CD69+ CD25+ by flow cytometry). Format: cell-based, human. To be noted: Homo sapiens, T-cell, read-out: EC50 (activation of Vγ9/Vδ2 T cells). On the procedure: Subsequently, we studied the ability of these HMBP phosphonodiamidate ProPAgens to activate Vγ9/Vδ2 T cells and elicit their lysis of cancer cells in vitro. For this, peripheral blood mononuclear cells (PBMCs) derived from healthy donors and containing Vγ9/Vδ2 T cells were incubated with increasing concentrations of zoledronate or phosphonodiamidate HMBP ProPAgens 9a–d and 14a–d (up to 100 μM) (Fig. 4). Peripheral blood γδ T cells lack appreciable levels of surface CD69 or CD25 under steady-state conditions, but TCR stimulation upregulates both T cell activation markers.[6] Thus, PAg-responsive Vγ9/Vδ2 T cells were then assessed for the upregulation of CD69 and CD25.
Fig. 4 In vitro phosphonodiamidate ProPAgen-mediated activation of Vγ9/Vδ2 T cells, following overnight incubation with zoledronate, and HMBP ProPAgens 9a–d and 14a–d. Levels of activation are represented as % of Vγ9/Vδ2 T cells that are CD69+ CD25+. Data is shown as mean ± SE (n = 4). (A) Activation of Vγ9/Vδ2 stimulated by phosphonodiamidate ProPAgens 9a–d. (B) Activation of Vγ9/Vδ2 stimulated by ProPAgens 14a–d. (C) Activation of Vγ9Vδ2 stimulated by zoledronate (Zol). (D) EC50 values were calculated using GraphPad Prism v9 based on the results of the activation assay.
As for the activation of Vγ9/Vδ2 T cells by the phosphonodiamidate ProPAgens (9a–d and 14a–d), these were initially tested using a concentration range from […] to 100 μM (Fig. 4A and B).
Healthy donor peripheral blood mononuclear cells (PBMCs) were harvested as previously described.[20] To assess the activation of Vγ9/Vδ2 T cells, PBMCs were seeded into U-bottom tissue culture-treated 96-well plates at a cell density of 500 000 cells per well. The cells were incubated with medium-only (control), in the presence of zoledronate at 10 pM to 100 μM, and with HMBP ProPAgens initially at 10 pM to 100 μM, and then at 1 aM to 100 μM for compounds 9d and 14d in a separate experiment. The cells were incubated at 37 °C/5% CO2 overnight, and stained by flow cytometry for the following markers: viability (Zombie Aqua 1 : 400), CD3 (BV421 1 : 100), CD8 (BV650 1 : 200), Vγ9 (PEcy5 1 : 400), Vδ2 (APC 1 : 200), CD69 (PE 1 : 25), CD25 (FITC 1 : 100). The samples were acquired via LSRFortessa X20 (BD Biosciences), and the data obtained were analyzed using FlowJo v10 and GraphPad Prism v9 software.

Data set [1] is described as follows: Human serum stability assay (31P NMR). The class given is in vitro ADME. The settings on record: 37 °C, read-out: human serum stability t1/2. As to the method:
Upon synthesis, we first studied whether these phosphonodiamidate ProPAgens are stable in human serum. As a representative of this class of phosphonodiamidate ProPAgens in the serum stability studies, we chose ProPAgen 9b, which has an iPr ester like the two FDA-approved phosphoramidate prodrugs, sofosbuvir and tenofovir alafenmide.[24,33] Thus, ProPAgen 9b was incubated with human serum at 37 °C for […] and monitored the sample by ^31P NMR, as we reported previously.[20] […] Following the incubation of the phosphonodiamidate ProPAgen 9b with human serum and monitoring of the sample by ^31P-NMR, these original 9b^31P-NMR peaks remained present through the 7.5 h of the study, and no new ^31P-NMR peaks were observed. […] This stability profile is in line with the aryloxy diester phosphoramidate prodrugs of these monophosphonates that we reported[20] before and that of the analogous symmetrical nucleoside phosphorodiamidate prodrugs.[26]
Fig. 2 Stability of the HMBP phosphonodiamidate ProPAgen 9b in human serum at 37 °C for 7.5 h as monitored by ^31P NMR. […]
This experiment was carried out as previously reported.[20,26,40] […] After recording the first ^31P NMR data, 0.3 mL human serum (Merck Life Sciences) was added and monitored by NMR. […] Recorded data were processed and analyzed with Bruker Topspin 2.1 software.

Another data set has as its target T1, carboxypeptidase Y (Saccharomyces cerevisiae, UniProt P00729).
T1 sequence (P00729 112-532): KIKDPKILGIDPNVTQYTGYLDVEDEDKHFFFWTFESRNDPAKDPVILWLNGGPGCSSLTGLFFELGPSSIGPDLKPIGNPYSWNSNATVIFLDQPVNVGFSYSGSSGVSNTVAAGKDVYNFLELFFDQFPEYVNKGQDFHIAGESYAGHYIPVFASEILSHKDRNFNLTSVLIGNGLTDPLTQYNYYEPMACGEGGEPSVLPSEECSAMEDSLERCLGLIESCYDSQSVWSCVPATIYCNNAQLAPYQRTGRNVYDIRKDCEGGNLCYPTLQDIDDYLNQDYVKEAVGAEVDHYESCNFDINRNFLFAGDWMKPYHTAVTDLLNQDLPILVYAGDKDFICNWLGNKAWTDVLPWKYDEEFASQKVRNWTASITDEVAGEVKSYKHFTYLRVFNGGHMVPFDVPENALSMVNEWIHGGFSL
The data set is described as follows: Carboxypeptidase Y assay (31P NMR). Format: in vitro ADME. To be noted: recombinant carboxypeptidase Y, 37 °C, 6.5 h. As to the method: Fig. 3 Metabolism of diamidate ProPAgens.
With this postulated mechanism of phosphonodiamidate prodrugs in mind, we subsequently incubated the phosphonodiamidate ProPAgen 9b with recombinant carboxypeptidase Y at 37 °C and monitored the reaction by ^31P-NMR for 6.5 h. […] Upon addition of carboxypeptidase Y and within 0.5 h, a new ^31P NMR triplet (δP = 6.82, 7.27 and 7.72 ppm) appeared and became prominent as the assay proceeded while the original ^31P NMR peaks (δP = 14.16, 14.67 and 15.14 ppm) corresponding to ProPAgen 9b reduced over time.
This experiment was carried out as previously reported.[20,26,40] 5.0 mg of the phosphonodiamidate ProPAgen 9b was dissolved in 0.2 mL of acetone, and 0.4 mL of Trizma buffer (pH 7.4) was added followed by 0.5 mg carboxypeptidase Y in 0.2 ml Trizma buffer (pH 7.4). The experiment was run on NMR phosphorus mode and scanned every half an hour for 6.5 h. The incubation temperature was 37 °C. Recorded data were processed and analyzed with Bruker Topspin 2.1 software.

The next data set relates to cancer patients. Also on record: method as in PMID 18301889, PMID 20563721. To be noted: in combination with a low dose of IL-2; cited from earlier work.

`C/C(=C\CC(F)(F)P(=O)(N[C@@H](C)C(=O)OC(C)C)N[C@@H](C)C(=O)OC(C)C)CO` [9b, Diisopropyl 2,2′-((((E)-1,1-difluoro-5-hydroxy-4-methylpent-3-en-1-yl)phosphoryl)bis(azanediyl))(2S,2′S)-dipropionate]: the EC50 with Vγ9/Vδ2 T cells was determined as 167 nM. Besides, the half-life at 10 mg/mL in data set [1] is greater than 7.5 h. The “carboxypeptidase Y-mediated breakdown” value on carboxypeptidase Y is given as “not fully metabolised”.

Take `CC(O)(CBr)CCOP(=O)(O)OP(=O)(O)O` (stereo not shown) [BrHPP, bromohydrin pyrophosphate]: in the data set on cancer patients, the “safety and tolerability in cancer patients” value is “safe and well tolerated”.

The values are drawn from article PMC11253855, “Phosphonodiamidate prodrugs of phosphoantigens (ProPAgens) exhibit potent Vγ9/Vδ2 T cell activation and eradication of cancer cells” (RSC Medicinal Chemistry, 2024).
